Experimental data published in US6593306B1, “Methods for modulation and inhibition of telomerase” (Board of Regents, The University of Texas Systems, priority 1995, dated 2003).
[7dzG] = 7-deaza-2'-deoxyguanosine (G*)

What was measured:
UA-21 telomerase = molecular target: T1, UA-21 telomerase (Cricetulus griseus, UniProt A0A9J7FFE8); assay: Telomerase assay with CHO non-processive telomerase; type: biochemical, Chinese hamster
T1 construct: non-processive telomerase activity in the S100 extracts of HeLa-S3, UA-21 and WI38 cell lines; endogenous in cells; host or cells: UA-21 cells (CHO subline), S100 extract
T1 sequence (A0A9J7FFE8 1-1129): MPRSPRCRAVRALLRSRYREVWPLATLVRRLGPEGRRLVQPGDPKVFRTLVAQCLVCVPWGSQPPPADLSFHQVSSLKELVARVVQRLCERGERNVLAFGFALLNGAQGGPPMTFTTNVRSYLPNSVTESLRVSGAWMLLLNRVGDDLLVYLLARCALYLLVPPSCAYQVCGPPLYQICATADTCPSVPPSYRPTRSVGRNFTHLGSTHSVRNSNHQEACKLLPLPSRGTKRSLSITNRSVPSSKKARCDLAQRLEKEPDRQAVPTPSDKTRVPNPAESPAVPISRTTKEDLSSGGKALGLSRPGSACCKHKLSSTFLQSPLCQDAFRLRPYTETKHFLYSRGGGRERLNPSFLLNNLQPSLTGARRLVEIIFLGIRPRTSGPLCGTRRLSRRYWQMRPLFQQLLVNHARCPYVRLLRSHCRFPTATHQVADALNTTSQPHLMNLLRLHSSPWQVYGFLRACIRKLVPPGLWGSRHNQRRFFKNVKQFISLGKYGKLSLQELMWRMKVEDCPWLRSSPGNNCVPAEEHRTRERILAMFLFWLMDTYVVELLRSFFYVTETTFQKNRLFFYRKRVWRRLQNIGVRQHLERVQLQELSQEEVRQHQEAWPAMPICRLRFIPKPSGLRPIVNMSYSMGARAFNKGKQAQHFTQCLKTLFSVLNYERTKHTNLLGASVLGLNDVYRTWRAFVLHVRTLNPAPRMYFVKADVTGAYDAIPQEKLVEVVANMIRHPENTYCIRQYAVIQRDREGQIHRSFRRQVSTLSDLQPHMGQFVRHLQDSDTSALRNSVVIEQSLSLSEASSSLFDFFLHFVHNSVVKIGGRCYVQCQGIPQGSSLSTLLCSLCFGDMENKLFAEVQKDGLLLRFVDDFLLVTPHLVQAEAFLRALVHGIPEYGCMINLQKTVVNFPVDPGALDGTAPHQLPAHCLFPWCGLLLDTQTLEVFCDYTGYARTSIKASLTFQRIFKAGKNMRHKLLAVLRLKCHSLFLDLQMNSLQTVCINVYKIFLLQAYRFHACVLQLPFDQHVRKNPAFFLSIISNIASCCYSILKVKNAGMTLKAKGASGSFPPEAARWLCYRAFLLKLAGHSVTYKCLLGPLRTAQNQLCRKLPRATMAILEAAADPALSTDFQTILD
Procedure: Selected nucleoside triphosphates were tested in one or both of the “conventional” or “modified” telomerase assays described in Methods using the human processive and the CHO non-processive telomerases. Initially, three chain-terminators were selected: 2′,3′-dideoxythymidine triphosphate (ddTTP), 3′-fluoro-2′,3′-dideoxythymidine triphosphate (F-ddTTP), and 3′-azido-2′-, 3′-dideoxythymidine triphosphate (AZ-ddTTP) as prototype agents to investigate whether they could inhibit telomerase activity. The three compounds are dTTP analogs without a 3′-OH group for subsequent chain elongation. They may either incorporate into the telomere sequence and terminate further chain elongation or compete directly with dTTP for the substrate binding site in the telomerase reaction. In either case, telomerase activity is inhibited.
The DNA ladder bands were quantitated using a Molecular Dynamic Personal Densitometer. The concentration of AZ-ddTTP required to inhibit the telomerase activity by 50% of the control is estimated to be 500 and 750 μM against the 293 and UA-21 telomerase, respectively. In contrast, the nucleoside AZT (3′-azidothymidine), at 2 mM, has a small effect on the telomerase activity.

human telomerase = molecular target: T2, human telomerase (Homo sapiens, UniProt O14746); assay: Cell-free telomerase inhibition, conventional or modified assay not stated; type: biochemical
T2 construct: telomerase in S100 extracts of transformed human fetal kidney tumor 293 cells (a processive telomerase); endogenous in cells; host or cells: human cells, (S100 extract)
T2 sequence (O14746 whole entry): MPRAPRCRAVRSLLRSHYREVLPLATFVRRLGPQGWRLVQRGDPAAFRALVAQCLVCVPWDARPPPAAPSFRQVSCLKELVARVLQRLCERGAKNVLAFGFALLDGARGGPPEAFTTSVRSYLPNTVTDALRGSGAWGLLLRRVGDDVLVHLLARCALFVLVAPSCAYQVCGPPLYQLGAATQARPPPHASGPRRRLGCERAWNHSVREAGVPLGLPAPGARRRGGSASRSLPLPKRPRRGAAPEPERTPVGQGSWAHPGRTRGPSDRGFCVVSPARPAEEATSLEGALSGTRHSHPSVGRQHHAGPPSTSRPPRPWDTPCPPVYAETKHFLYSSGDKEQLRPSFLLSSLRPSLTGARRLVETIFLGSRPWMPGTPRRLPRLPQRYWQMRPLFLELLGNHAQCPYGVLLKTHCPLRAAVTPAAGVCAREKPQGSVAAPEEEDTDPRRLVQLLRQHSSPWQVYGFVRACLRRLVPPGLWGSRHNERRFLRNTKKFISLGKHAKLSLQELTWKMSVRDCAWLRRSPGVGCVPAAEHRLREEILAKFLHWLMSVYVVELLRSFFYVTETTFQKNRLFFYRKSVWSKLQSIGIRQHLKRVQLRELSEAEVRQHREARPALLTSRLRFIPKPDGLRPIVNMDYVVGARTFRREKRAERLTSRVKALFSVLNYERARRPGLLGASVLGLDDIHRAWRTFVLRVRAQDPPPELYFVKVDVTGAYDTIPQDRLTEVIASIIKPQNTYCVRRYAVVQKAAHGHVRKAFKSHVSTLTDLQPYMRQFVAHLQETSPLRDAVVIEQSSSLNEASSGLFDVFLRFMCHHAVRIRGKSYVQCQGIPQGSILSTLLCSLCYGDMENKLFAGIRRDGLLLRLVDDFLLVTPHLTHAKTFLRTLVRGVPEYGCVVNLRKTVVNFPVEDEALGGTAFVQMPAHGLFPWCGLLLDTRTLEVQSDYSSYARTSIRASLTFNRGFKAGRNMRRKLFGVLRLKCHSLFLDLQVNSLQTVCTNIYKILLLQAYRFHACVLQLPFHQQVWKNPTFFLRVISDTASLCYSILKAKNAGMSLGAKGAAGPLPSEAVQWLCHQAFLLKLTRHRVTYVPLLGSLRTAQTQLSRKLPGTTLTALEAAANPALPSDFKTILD
T2 sequence (O60832 whole entry partner): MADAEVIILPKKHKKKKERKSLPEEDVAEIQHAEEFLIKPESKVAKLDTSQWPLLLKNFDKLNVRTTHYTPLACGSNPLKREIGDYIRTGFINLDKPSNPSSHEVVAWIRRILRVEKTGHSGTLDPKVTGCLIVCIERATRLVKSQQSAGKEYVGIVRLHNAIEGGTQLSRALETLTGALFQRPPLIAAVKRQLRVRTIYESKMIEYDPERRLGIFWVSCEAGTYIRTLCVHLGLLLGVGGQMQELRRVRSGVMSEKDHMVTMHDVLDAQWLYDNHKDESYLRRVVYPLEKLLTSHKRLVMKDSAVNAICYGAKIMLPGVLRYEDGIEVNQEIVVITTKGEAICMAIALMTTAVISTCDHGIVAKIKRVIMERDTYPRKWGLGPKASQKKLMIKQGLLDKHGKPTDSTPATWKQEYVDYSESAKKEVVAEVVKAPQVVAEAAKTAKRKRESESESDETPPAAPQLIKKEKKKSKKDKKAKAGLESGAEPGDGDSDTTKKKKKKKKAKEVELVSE
T2 sequence (Q9NPE3 whole entry partner): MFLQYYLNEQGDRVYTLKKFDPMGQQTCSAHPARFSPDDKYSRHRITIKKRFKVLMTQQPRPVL
T2 sequence (Q9NX24 whole entry partner): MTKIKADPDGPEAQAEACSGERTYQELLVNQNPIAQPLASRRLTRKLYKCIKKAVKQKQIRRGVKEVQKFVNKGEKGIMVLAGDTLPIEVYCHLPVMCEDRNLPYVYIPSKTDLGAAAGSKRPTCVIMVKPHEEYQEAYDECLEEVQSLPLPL
T2 sequence (Q9NY12 whole entry partner): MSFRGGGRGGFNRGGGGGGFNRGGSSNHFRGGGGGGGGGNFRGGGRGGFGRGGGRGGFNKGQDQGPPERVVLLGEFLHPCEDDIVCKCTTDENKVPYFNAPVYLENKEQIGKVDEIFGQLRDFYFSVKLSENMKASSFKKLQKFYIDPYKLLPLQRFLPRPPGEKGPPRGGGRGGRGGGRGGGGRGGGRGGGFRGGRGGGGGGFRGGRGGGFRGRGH

[1] = molecular target: T3, human 293 cell telomerase (Homo sapiens, UniProt O14746); assay: Conventional telomerase assay (32P-dGTP as radiolabel substrate); type: biochemical; settings: 293 cells telomerase; competing dTTP 1-2 mM; inhibitor 0 to 2 mM
T3 construct: with 20 μl of S100 enzyme extract; endogenous in cells; host or cells: 293 cells (transformed human embryonic kidney), S100 extract
T3 sequence (O14746 whole entry): as the sequence (O14746 whole entry) above
T3 sequence (O60832 whole entry partner): as the sequence (O60832 whole entry partner) above
T3 sequence (Q9NPE3 whole entry partner): as the sequence (Q9NPE3 whole entry partner) above
T3 sequence (Q9NX24 whole entry partner): as the sequence (Q9NX24 whole entry partner) above
T3 sequence (Q9NY12 whole entry partner): as the sequence (Q9NY12 whole entry partner) above

[2] = system: G-quartet structure of human telomeric DNA sequence; assay: G-quartet formation by imino proton NMR; type: physicochemical; settings: KCl-containing buffer; imino proton resonances 10-12 ppm
Procedure: The oligodeoxyribonucleotide having the sequence d(GGTTAGGGTTAG), corresponding to the human telomeric DNA sequence, was prepared using standard automated solid phase synthesis techniques employing a ten micromole synthesis on an Applied Biosystems Model 381A automated DNA synthesizer. Solid support and reagents were purchased from Biogenex, Glen Research, or Applied Biosystems, South San Francisco, Calif. The DNA sample was deprotected in concentrated NH4OH at 55° C. overnight, purified by reverse phase HPLC on a C18 column (Dynamax-300A) and then dialyzed extensively against deionized water. NMR samples were prepared by reconstituting lyophilized DNA in 90% H2O/10% D2O containing 1 mM EDTA/50 mM potassium phosphate and either 100 mM KCl or 100 mM NaCl. NMR experiments were carried out on a Bruker AMX 500 MHz spectrophotometer using a 1-1 echo pulse sequence with maximum excitation centered as 12.0 ppm.
After cleavage from the solid support, deprotection and purification, the oligodeoxyribonucleotide is dissolved in 90% H2O/10% D2O containing 100 mM KCl/1 mM EDTA/50 mM potassium phosphate. The imino NMR spectrum of this oligodeoxyribonucleotide is acquired at various temperatures from about 0° C.-80° C. and the presence of the diagnostic G-quartet imino is indicated by the presence of resonances at 10-12 ppm.

With Cc1cn([C@H]2C[C@H](F)[C@@H](COP(=O)(O)OP(=O)(O)OP(=O)(O)O)O2)c(=O)[nH]c1=O [NA002, 3′-Fluoro-3′-Deoxythymidine-5′-Triphosphate] the “inhibition of the non-processive CHO telomerase” value (UA-21 telomerase; concentration not given) was “completely” and the “effect against the processive human telomerase” value (human telomerase; concentration not given) was “little effect”.
With Cc1cn([C@H]2C[C@H](N=[N+]=[N-])[C@@H](CO[P@](=O)(O)O[P@](=O)(O)OP(=O)(O)O)O2)c(=O)[nH]c1=O [NA010, 3′-Azido-3′-Deoxythymidine-5′-Triphosphate] the IC50 [1] was about 200 µM, the IC50 (UA-21 telomerase; UA-21 telomerase, estimated from densitometry, read-out: concentration required to inhibit the telomerase activity by 50% of the control) was about 750 µM and the IC50 (human telomerase; 293 telomerase, estimated from densitometry, read-out: concentration required to inhibit the telomerase activity by 50% of the control) was about 500 µM.
With “d(GGTTAGG*GTTAG): oligodeoxyribonucleotide where G* represents the 7-deaza-2′-deoxyguanosine residue (DNA GGTTAGGGTTAG; DNA, [7dzG] at 7, backbone not given here)” the “temperature up to which G-quartet structure forms” value [2] was at most 20 °C.
For “d(GGTTAGGGTTAG): oligodeoxyribonucleotide corresponding to the human telomeric DNA sequence (DNA, backbone not given here) [reference compound]”, the “temperature up to which G-quartet structure forms” value [2] was at least 70 °C.
